Results on 9 compounds are retold here after article PMC5575254, “An allosteric ligand-binding site in the extracellular cap of K2P channels” (Nature Communications, 2017).

One assay relates to K2P channels. Further details: method as in PMID 9628867, PMID 8605869. The note with it: ref [26], [27]; cited from earlier work.
In assay [1] the target is T1, TREK-2 (Homo sapiens, UniProt P57789).
T1 construct: expressed in transfected cells; host or cells: CHO cells, transient transfection
T1 sequence (P57789 1-538): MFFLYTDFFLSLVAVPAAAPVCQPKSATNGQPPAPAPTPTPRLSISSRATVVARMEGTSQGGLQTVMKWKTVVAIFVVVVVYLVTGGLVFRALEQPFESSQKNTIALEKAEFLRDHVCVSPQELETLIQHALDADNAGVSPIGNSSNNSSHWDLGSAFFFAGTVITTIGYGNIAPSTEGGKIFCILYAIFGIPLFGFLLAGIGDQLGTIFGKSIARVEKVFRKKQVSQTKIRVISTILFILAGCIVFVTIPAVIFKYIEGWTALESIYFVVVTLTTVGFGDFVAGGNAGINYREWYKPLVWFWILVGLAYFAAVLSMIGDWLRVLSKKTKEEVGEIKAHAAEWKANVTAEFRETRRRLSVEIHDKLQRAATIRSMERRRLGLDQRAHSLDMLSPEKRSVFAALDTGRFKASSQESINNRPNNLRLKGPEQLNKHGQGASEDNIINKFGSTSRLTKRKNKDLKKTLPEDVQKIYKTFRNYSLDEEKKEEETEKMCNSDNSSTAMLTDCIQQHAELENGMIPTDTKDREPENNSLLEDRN
Description: Whole-cell voltage clamp of CHO cells expressing TREK-2. It is filed as cell-based. The note with it: mean ± s.e.m. An excerpt: (§1) cDNA of the human TREK-1, TREK-2 and TRAAK channels were subcloned into the pEGFPN1 expression vector (Invitrogen), respectively. Mutations were introduced into TREK-1 or TRAAK by PCR using the QuickChange XL sitedirected mutagenesis kit (Agilent Technologies) and were subsequently confirmed by DNA sequencing.
(§2) Chinese hamster ovary (CHO) cells were provided by the Cell Bank of Chinese Academy of Sciences (Shanghai, China). CHO cells were maintained in DMEM/F12 (Gibco) supplemented with 10% fetal bovine serum (Gibco) and 100 μg ml^−1 penicillin-streptomycin (Cellgro) in a humidified incubator at 37 °C (5% CO2). For electrophysiology experiments, cells plated in 35 mm tissue culture dishes (Corning Incorporated) were transiently transfected with the plasmids using PolyJet™ reagent (SignaGen) according to the manufacturer’s instructions. Primers used in this study are listed in Supplementary Table 4.
(§3) All electrophysiological recordings were obtained using patch-clamp recordings in two different configurations: (1) whole cell for macroscopic current dose–response curves; and (2) outside-out and inside-out for macroscopic currents recordings.
(§4) All patch-clamp recordings were conducted 36–96 h after transfection with an Axopatch-200B amplifier (Molecular Devices) at room temperature (23–25 °C). The microelectrodes fashioned from 1.5 mm thin-walled borosilicate glass with filament were pulled from Flaming/Brown type micropipette puller (P-97; SUTTER INSTRUMENT) with the resistances of 3–7 MΩ (whole cell) or 7–15 MΩ (outside-out) when filled with a solution containing (in mM): 140 KCl, 2 MgCl2, 10 EGTA, 1 CaCl2, 10 HEPES (pH 7.3, adjusted with KOH). External solution contained (in mM): 150 NaCl, 5 KCl, 0.5 CaCl2, 1.2 MgCl2, 10 HEPES (pH 7.3, adjusted with NaOH). The current signals were filtered at 1 kHz and digitized at a 10 kHz sampling frequency by using DigiData 1440 A.
(§5) Data of whole-cell voltage clamp experiments were fitted using doseResp function. The half inhibition concentrations were derived from fits of the dose–response curves to the function:1 I/I0=A1+A2-A1/1+10^logx0-xP, where I 0 and I are current amplitudes before and after application of inhibitors; A 1 and A 2 are constants between 0 and 1; x is the concentration of inhibitor; x o is the concentration when 50% inhibition was reached (IC50), P is the Hill constant.

The target in the next assay is T2, TREK-1 channel (Homo sapiens, UniProt O95069).
T2 construct: expressed in transfected cells; host or cells: CHO cells, transient transfection
T2 sequence (O95069 1-411 isoform O95069-2): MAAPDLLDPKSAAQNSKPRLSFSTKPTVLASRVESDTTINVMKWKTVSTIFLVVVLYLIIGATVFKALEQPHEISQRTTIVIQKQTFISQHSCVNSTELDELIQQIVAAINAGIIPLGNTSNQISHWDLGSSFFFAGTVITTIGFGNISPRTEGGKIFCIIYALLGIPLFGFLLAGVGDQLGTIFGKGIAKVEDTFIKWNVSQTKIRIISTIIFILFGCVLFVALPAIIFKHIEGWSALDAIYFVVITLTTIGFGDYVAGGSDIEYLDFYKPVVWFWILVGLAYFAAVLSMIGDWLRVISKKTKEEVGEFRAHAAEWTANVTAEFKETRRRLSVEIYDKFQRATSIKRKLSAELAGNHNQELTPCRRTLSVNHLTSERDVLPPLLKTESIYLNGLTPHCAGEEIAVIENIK
Description: Whole-cell voltage clamp of CHO cells transiently transfected with TREK-1. Particulars: whole-cell, CHO cells, WT TREK-1, mean ± s.e.m; for IC50: read-out: half-maximal inhibition concentration (IC50), TREK-1. It is filed as cell-based.
From the text: as §1, §2, §3, §4, §5

In another assay the target is T3, TRAAK (Homo sapiens, UniProt Q9NYG8).
T3 construct: expressed in transfected cells; host or cells: CHO cells, transient transfection
T3 sequence (Q9NYG8 1-393): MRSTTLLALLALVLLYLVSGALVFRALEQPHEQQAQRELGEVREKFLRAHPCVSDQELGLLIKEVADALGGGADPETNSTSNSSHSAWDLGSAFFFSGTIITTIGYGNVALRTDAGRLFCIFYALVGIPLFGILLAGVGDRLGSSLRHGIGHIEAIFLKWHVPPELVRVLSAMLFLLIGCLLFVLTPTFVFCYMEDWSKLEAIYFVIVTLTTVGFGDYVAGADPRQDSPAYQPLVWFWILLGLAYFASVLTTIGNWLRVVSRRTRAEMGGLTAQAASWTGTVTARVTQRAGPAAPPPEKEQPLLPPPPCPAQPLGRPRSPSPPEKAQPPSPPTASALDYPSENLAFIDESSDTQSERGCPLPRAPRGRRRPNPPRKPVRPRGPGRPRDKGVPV
Description: Whole-cell voltage clamp of CHO cells expressing TRAAK. The note with it: for IC50: whole-cell, CHO cells, WT TRAAK, mean ± s.e.m. The format is cell-based.
From the text: as §1, §2, §3, §4, §5

The next assay deals with TREK channels. The note with it: ref [7], [16]; cited from earlier work.
The next assay relates to mice. Description: Forced swimming test. It is filed as in vivo, Male C57BL/6 mice. Particulars: chronic i.p. administration 10 days; TKDC 0.5, 1, 5 mg kg-1; fluoxetine 10 mg kg-1; vs vehicle. On the procedure: Male C57BL/6 mice, aged 8 weeks (weighing 18–20 g) were used for acute and chronic drug administration and behavioral tests. The mice were housed four per cage under a 12-h light–dark cycle. Mice were raised under stable conditions with food and water ad libitum. All animal studies and experimental procedures were approved by the Animal Care Committees of the Shanghai Institute of Materia Medica, Chinese Academy of Sciences, and experiments were carried out in accordance with EU Directive 2010/63/EU on the protection of animals used for scientific purposes. […] The mice were removed to a sound-attenuating testing room 3–4 h before testing. The behavioral tests were carried out 30 min and 24 h after acute and chronic drugs administration, respectively.
The mice were performed under normal light. The apparatus was a transparent Plexiglas cylinder with 30 cm height × 10 cm diameter and the water temperature at 23–25 °C were set to prevent mice from touching the bottom with their limbs. Mice were allowed to swim for 8 min, and their activity was videotaped. There was an extra 15-min swimming in the previous day. The duration of immobility defined as floating or remaining motionless was assessed. To avoid extremely active at the beginning of swimming, the first 2 min of swimming was also excluded as the tail suspension test. […]

In a further assay the test system is TASK-3. Further details: method as in PMID 25409575, PMID 18417474, PMID 12606773, PMID 16513667. The note with it: binds E70; ref [22]-[25]; cited from earlier work.
In assay [2] the test system is TREK-2. The arrangement: method as in PMID 25409575, PMID 18417474, PMID 12606773, PMID 16513667. The note with it: binds D135; ref [22]-[25]; cited from earlier work.
For the next assay, the system named is I110D TREK-1 mutant. Further details: method as in PMID 25409575. Particulars: ref [22]; cited from earlier work.
In assay [3] the test system is TREK-1. Further details: method as in Braun et al. [22]. Particulars: ref Braun et al. [22]; cited from earlier work.
Assay [4] deals with TREK-1. The arrangement: method as in earlier work. Particulars: ref [2] Borsotto M, et al. (2015); cited from earlier work.

With `Nc1ccncc1` [4-aminopyridine], in the assay on K2P channels, the “sensitivity of K2P channels to classical potassium channel pore blockers” value (“sensitivity of K2P channels” below) is “insensitivity”.

For the compound `O=C(CNc1ccc(Cl)cc1)N1CCc2ccccc2C1` [28NH, 2-((4-chlorophenyl)amino)-1-(3,4-dihydroisoquinolin-2(1H)-yl)ethanone], the “IC50, TREK-2” value at TREK-2 [1] is “comparable to those observed for TKDC-induced inhibitions”. Moreover, the “half-maximal inhibition concentration (IC50), TREK-1” value at TREK-1 channel is listed as “comparable to those observed for TKDC-induced inhibitions”. Moreover, the “IC50 for TRAAK relative to the value obtained with TKDC” value on TRAAK (28NH vs TKDC) was “almost sevenfold lower”. At TRAAK, this compound had an IC50 of 11.8 ± 2.1 µM.

Turning to `COc1ccccc1C(=O)Nc1cc(C(C)C)ccc1O` [TKN1], the IC50 is 4.4 ± 1 µM against TREK-2 [1], 6.5 ± 1.7 µM at TREK-1 channel and 15.7 ± 3.1 µM on TRAAK.

On to `Cc1cc(NC(=O)c2cccs2)cc(-c2nc3ccccc3o2)c1O` [TKN2], for which the IC50 against TREK-2 [1] stood at 1.7 ± 0.8 µM; on TREK-1 channel, 3.8 ± 0.6 µM; on TRAAK, 10.3 ± 1.5 µM.

On to `[Cs+]` [cesium ion], for which, in the assay on K2P channels, the “sensitivity of K2P channels” value is listed as “insensitivity”.

Regarding `CNCCC(Oc1ccc(C(F)(F)F)cc1)c1ccccc1` (centres unmarked) [fluoxetine, reference compound], the “effect on TREK channels” value with TREK channels is “can also inhibit TREK channels”. Besides, the “immobility in the forced swimming test” value with mice is given as “did not show antidepressant effects”.

On to `N.N.N.N.N.N.N.N.N.N.N.N.N.N.[Cl-].[Cl-].[Cl-].[Cl-].[Cl-].[Cl-].[O-2].[O-2].[Ru+3].[Ru+3].[Ru+4]` [ruthenium red], for which the “effect on TASK-3” value in the assay on TASK-3 is “inhibit”. Moreover, in the assay on TREK-2 [2], the “effect on TREK-2” value is listed as “inhibit”. Besides, the “effect on I110D TREK-1 mutant” value in the assay with I110D TREK-1 mutant was “inhibits”. For the same compound, in the assay with TREK-1 [3], the “sensitivity of TREK-1” value is given as “not sensitive”.

As to `CC[N+](CC)(CC)CC` [tetraethylammonium], in the assay with K2P channels, the “sensitivity of K2P channels” value is “insensitivity”.

Turning to spadin, in the assay with TREK-1 [4], the “effect on TREK-1” value is “specifically blocks the TREK-1”.
